Reference: EP4567040A1, “CRYSTAL FORM OF FUSED TRICYCLIC DERIVATIVE AND PREPARATION METHOD” (Jiangsu Hengrui Pharmaceuticals Co., Ltd., priority 2022, dated 2024)

Columns and labels:
[1] = molecular target: T1, CDK1/CyclinB (Homo sapiens, UniProt P06493); experiment: Kinase activity assay, ADP-Glo (CDK1/CyclinB); type: biochemical; details: Table 18; read-out: CDK1/B IC50
T1 construct: purchased proqinase 0134-0135-1

[2] = molecular target: T2, CYP1A2 (Homo sapiens, UniProt P05177); experiment: biochemical
T2 sequence (P05177 1-516): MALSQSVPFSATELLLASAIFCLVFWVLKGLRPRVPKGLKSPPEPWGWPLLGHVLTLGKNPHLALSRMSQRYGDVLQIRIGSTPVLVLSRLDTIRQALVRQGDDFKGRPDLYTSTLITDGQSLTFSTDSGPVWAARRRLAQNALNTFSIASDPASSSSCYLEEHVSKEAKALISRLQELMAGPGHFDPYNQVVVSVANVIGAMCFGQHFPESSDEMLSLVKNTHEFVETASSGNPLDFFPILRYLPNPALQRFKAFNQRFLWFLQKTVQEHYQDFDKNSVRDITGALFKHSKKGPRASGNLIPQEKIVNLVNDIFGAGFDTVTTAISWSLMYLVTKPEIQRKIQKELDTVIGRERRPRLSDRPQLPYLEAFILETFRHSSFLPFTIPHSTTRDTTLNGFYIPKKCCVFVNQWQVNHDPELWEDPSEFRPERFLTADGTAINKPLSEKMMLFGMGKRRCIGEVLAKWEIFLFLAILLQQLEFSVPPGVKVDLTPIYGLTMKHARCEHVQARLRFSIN
Description: The effects of different concentrations of the test compounds on the metabolic reactions of phenacetin (CYP1A2), diclofenac sodium (CYP2C9), S-mephenytoin (CYP2C19), bufuralol hydrochloride (CYP2D6), and midazolam (CYP3A4/5) were assessed by liquid chromatography-tandem mass spectrometry (LC/MS/MS).
Then, 200 µL of an acetonitrile solution containing 3% formic acid and 40 nM internal standard verapamil was added, and the mixture was centrifuged at 4000 rpm for 50 min. The mixture was cooled on ice for 20 min and centrifuged at 4000 rpm for 20 min to precipitate protein. 200 µL of the supernatant was taken for LC/MS/MS analysis.
The peak area was calculated based on the chromatogram. The residual activity proportion (%) was calculated using the following formula: peak area ratio = peak area of metabolite / peak area of internal standard [formula]
The half maximal inhibitory concentrations (IC50) against CYP were calculated using Excel XLfit 5.3.1.3.

[3] = molecular target: T3, CDK6/CyclinD3 (Homo sapiens, UniProt Q00534); experiment: Kinase activity assay, mobility shift assay (CDK6/CyclinD3); type: biochemical; details: Table 18; read-out: CDK6/D3 IC50
T3 construct: purchased Carna 04-107
Description: In vitro CDK kinase activity was tested using a mobility shift assay. […] A proper amount of kinase was added to the 1× kinase buffer to prepare a 2.5× enzyme solution. 5× compound dilutions (1× kinase buffer, 10% DMSO) corresponding to the test concentrations of the compounds were prepared. […] 5 µL of 5× compound dilution and 10 µL of 2.5× enzyme solution were added to reaction wells of a 384-well reaction plate. After thorough mixing, the plate was incubated at room temperature for 10 min. […] The reaction plate was incubated at 28 °C for 60 min (biochemical incubator model: SPX-100B-Z). 30 µL of stop solution was added to the 384-well reaction plate to stop the reactions, and the plate was centrifuged at 1000 rpm for 1 min.
IC50 values for the compounds were obtained by fitting using XLFit excel add-in version 5.4.0.8. Fitting formula: Y = Bottom + (Top−Bottom)/(1+((IC50/X))^(∧)HillSlope). [formula]

[4] = system: DPX2 (HepG2 cells were stably transfected with the human PXR gene and the fluorescent reporter gene) cells; experiment: Cell viability in the PXR induction assay (CellTiter-Fluor); type: cell-based
Description: • 1. The potential of the test compounds to induce the activity of drug metabolism enzymes through in vitro activation of PXR was evaluated. […] […] Experimental procedures • 3.1. Preparation for plating • 1) 50 mL of FBS was added to 450 mL of cell culture medium. • 2) DPX2 cells were cultured in a T-75 culture flask in a 37 °C, 5% CO2 incubator with 95% relative humidity. When covering 80-90% of the bottom of the culture flask, the cells were digested. • 3) The top layer of cells cultured in the T-75 culture flask was washed with 8 mL of PBS, and the PBS was pipetted off. The cells were digested with 3 mL of pancreatin at 37 °C for about 5 min or until they were floating in the pancreatin. 10 mL (excessive) of a serum-containing culture medium was added to neutralize the pancreatin. • 4) The cell suspension was transferred to a conical-bottomed centrifuge tube and centrifuged at 120 g for 10 min. The cells were suspended in the plating culture medium, and the concentration was adjusted to 4 × 10^5 cells/mL. The diluted cells were added to a 96-well cell culture plate at 100 µL/well. The culture plate was placed in an incubator and incubated at 37 °C for 24 h before the PXR activation experiment. • 3.2. […] […] The final concentration of DMSO was 0.1%. 1 µL of DMSO was added to a well containing 1 mL of pre-incubated culture medium as a solvent control. • 2) The cell culture plate was taken out of the incubator, and the culture medium was discarded. The test compounds and the positive compound were added to appropriate wells at 100 µL/well, and each group was tested in duplicate. The cell plate was placed in an incubator and incubated for 24 h. • 3.3. Quantification of PXR activation • 1) After […] of compound treatment, PXR activation was quantified for the culture. • 2) The CellTiter-Fluor™ cell viability assay kit and the One-Glo Luciferase reagent were equilibrated to room temperature. The GF-AFC (10 µL) substrate was added to Assay Buffer (10 mL) to form a 2× reagent, and the reagent was then diluted to 1× with 10 mL of PBS; the ONE-Glo substrate was added to the ONE-Glo Luciferase Assay buffer. • 3) The cell culture plate was taken out of the incubator, and the culture medium in each well was discarded. The plate was washed twice with PBS. The 1× CellTiter-Fluor™ reagent was added to a sterilized reagent reservoir, and 50 µL was transferred to each well using a multi-channel pipette. The plate was incubated at 37 °C for 30 min. • 4) The 96-well cell plate was taken out of the incubator, and the fluorescence in each well was measured using a microplate reader put in the fluorescence mode at an excitation wavelength of 400 nm and an emission wavelength of 505 nm. • 5) The ONE-Glo reagent was poured into a reagent reservoir, and then 50 µL was transferred to each well using a multi-channel pipette. The reagent was gently and well mixed, and the mixture was incubated and well mixed at room temperature for 5 min. After the incubation, the luminescence in each well was measured using a luminometer.
The calculation formula for cell viability: Percent cell viability (%) = I(sample)/(I(vehicle) × 100 [formula]
I(sample) represents the fluorescence intensity of the sample, and I(vehicle) represents the fluorescence intensity of 0.1% DMSO to cells.

[5] = compound concentration 0.123 µM

T1 sequence (P06493 whole entry): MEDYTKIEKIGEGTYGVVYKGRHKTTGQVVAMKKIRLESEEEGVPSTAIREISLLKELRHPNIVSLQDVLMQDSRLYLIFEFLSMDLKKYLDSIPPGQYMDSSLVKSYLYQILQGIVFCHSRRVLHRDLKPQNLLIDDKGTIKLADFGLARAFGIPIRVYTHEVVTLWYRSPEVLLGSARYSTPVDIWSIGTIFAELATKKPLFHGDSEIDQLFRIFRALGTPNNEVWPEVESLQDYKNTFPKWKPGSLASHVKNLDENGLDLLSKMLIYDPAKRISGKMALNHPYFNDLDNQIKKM
T1 sequence (P14635 whole entry partner): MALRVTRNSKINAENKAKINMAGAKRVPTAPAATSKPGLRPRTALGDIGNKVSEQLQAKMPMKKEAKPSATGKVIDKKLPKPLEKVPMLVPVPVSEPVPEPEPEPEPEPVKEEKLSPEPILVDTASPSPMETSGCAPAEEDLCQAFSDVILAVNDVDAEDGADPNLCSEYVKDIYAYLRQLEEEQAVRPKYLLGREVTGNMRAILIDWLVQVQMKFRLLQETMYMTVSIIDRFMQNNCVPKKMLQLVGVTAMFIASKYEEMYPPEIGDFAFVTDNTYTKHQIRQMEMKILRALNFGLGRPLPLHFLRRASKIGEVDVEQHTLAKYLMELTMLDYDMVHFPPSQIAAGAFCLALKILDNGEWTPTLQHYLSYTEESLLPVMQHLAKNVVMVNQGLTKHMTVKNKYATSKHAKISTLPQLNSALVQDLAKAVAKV
T3 sequence (Q00534 whole entry): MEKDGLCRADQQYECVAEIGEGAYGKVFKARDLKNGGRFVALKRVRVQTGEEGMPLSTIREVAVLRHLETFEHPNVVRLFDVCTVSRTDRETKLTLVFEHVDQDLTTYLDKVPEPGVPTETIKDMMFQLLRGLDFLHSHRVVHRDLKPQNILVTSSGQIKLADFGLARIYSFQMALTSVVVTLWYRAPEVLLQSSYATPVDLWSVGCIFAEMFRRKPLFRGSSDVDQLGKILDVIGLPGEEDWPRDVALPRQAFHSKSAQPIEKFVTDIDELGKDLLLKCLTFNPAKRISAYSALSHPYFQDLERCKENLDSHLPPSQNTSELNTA
T3 sequence (P30281 whole entry partner): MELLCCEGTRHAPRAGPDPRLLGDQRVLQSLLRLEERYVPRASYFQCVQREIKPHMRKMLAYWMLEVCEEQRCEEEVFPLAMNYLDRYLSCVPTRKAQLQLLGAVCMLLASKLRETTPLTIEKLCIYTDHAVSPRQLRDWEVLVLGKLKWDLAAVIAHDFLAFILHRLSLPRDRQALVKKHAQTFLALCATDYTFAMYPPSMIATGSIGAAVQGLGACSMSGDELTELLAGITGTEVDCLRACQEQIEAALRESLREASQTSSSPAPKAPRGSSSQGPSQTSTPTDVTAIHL

IC50 [1] [nM]	IC50 [2] [nM]	IC50 [3] [nM]	SMILES	Cell viability (%) [4, 5] [%]	Cell viability (%) ([4]; compound concentration 10.0 µM)
> 1000	> 30000	105	C[C@H]1COc2c(-c3nc(N[C@@H]4CCOC[C@H]4O)ncc3Cl)cc(F)c3nc(C(C)(C)O)n1c23 (single isomer, unassigned) [Isomer 1 with a retention time of 2.078 min]	99.16	117.18
> 1000	> 30000	228	C[C@@H]1COc2c(-c3nc(N[C@@H]4CCOC[C@H]4O)ncc3Cl)cc(F)c3nc(C(C)(C)O)n1c23 (single isomer, unassigned) [Isomer 2 with a retention time of 1.887 min]	102.41	108.37
